This passage reports inhibition results from patent publication US8569484B2, “Heterocyclic urea derivatives and methods of use thereof” (Astrazeneca AB, priority 2009, dated 2013).

The test deals with S. aureus GyrB ATPase (Staphylococcus aureus, UniProt P0A0K8). Put plainly: S. aureus GyrB ATPase inhibition (ammonium molybdate/malachite green phosphate detection). It counts as biochemical. The conditions noted are these: read-out: Percent Inhibition (1 μM). The protocol:
S. aureus GyrB ATPase Inhibition Activity: Compounds may be tested for inhibition of S. aureus GyrB ATPase activity using an ammonium molybdate/malachite green-based phosphate detection assay (Lanzetta, P. A., L. J. Alvarez, P. S. Reinach, and O. A. Candia, 1979, 100: 95-97). Assays can be performed in multiwell plates in 30 μl reactions containing: 50 mM Hepes buffer pH 7.5, 75 mM ammonium acetate, 8.0 mM magnesium chloride, 0.5 mM ethylenediaminetetraacetic acid, 5% glycerol, 1.0 mM 1,4-Dithio-DL-threitol, 200 nM bovine serum albumin, 1.0 μg/ml sheared salmon sperm DNA, 250 pM E. coli GyrA, 250 pM S. aureus GyrB, 250 μM ATP, and compound in dimethylsulfoxide. Reactions can be quenched with 30 μl of ammonium molybdate/malachite green detection reagent containing 1.2 mM malachite green hydrochloride, 8.5 mM ammonium molybdate tetrahydrate, and 1 M hydrochloric acid. Plates can be read in an absorbance plate reader at 650 nm and percent inhibition values can be calculated using dimethylsulfoxide (2%)-containing reactions as 0% inhibition and EDTA-containing ([…]) reactions as 100% inhibition controls. An IC50 measurement of compound potency for each compound can be determined from reactions performed in the presence of 10 different compound concentrations.

Where [1] appears, read: 1 μM compound, S. aureus GyrB ATPase.

Read-outs that look alike come from different tables or passages of the source.

By inhibition is commonly meant the drop in the measured response relative to a control, in per cent.

Sequence of S. aureus GyrB ATPase (P0AES4 whole entry): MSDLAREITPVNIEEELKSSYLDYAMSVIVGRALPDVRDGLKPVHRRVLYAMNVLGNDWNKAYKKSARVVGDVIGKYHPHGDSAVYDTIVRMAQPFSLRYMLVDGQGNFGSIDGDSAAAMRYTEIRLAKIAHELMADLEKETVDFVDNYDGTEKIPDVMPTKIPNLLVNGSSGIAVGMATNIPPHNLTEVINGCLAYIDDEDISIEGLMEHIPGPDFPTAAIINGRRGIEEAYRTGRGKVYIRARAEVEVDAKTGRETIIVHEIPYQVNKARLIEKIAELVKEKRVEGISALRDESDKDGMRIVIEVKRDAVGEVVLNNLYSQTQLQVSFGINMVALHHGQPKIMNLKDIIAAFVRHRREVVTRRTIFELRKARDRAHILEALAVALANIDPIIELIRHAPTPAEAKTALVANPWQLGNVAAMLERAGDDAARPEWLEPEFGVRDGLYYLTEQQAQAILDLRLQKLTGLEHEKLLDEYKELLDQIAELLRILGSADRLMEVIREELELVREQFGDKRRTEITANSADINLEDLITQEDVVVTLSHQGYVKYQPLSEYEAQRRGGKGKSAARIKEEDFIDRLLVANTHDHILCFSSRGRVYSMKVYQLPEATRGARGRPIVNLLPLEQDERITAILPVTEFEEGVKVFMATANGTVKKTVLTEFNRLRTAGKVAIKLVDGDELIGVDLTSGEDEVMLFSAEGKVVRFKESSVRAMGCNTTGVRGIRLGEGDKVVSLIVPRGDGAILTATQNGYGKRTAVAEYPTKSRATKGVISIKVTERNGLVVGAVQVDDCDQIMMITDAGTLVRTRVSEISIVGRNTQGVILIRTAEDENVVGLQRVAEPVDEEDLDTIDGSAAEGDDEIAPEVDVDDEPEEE
Sequence of S. aureus GyrB ATPase (P0A0K8 whole entry): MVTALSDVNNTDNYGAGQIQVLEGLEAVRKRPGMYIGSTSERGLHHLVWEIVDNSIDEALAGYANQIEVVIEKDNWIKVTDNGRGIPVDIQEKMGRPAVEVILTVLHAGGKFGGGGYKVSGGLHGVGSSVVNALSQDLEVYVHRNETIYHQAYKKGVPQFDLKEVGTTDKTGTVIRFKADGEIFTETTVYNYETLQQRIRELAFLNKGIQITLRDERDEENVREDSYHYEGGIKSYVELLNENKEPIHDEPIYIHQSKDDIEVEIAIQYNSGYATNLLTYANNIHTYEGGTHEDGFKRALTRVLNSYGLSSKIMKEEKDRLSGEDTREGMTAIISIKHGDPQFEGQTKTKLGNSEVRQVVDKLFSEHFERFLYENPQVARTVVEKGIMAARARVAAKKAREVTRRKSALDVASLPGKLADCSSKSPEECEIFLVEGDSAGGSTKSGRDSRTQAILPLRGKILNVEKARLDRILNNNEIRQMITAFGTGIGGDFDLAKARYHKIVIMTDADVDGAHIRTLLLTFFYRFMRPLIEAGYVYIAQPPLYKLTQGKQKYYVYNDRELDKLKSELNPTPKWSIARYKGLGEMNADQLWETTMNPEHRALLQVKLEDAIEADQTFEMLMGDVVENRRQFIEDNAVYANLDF

As to `CCNC(=O)Nc1cc(-c2nc(C(F)(F)F)cs2)c(-c2cnc3c(c2)c(=O)c(C(=O)O)cn3CC2CCN(C)CC2)cn1` [Example 1, 6-(6-(3-Ethylureido)-4-(4-(trifluoromethyl)thiazol-2-yl)pyridin-3-yl)-1-((1-methylpiperidin-4-yl)methyl)-4-oxo-1,4-dihydro-1,8-naphthyridine-3-carboxylic acid], under setting [1], the inhibition at 1 µM is 107%.
For `CCNC(=O)Nc1cc(-c2nc(C(F)(F)F)cs2)c(-c2cnc3c(c2)c(=O)c(C(=O)O)cn3CCC2CCN(C)CC2)cn1` [Example 2, 6-(6-(3-ethylureido)-4-(4-(trifluoromethyl)thiazol-2-yl)pyridin-3-yl)-1-(2-(1-methylpiperidin-4-yl)ethyl)-4-oxo-1,4-dihydro-1,8-naphthyridine-3-carboxylic acid], the inhibition at 1 µM under setting [1] was determined as 123%.
The same measure, in the same setting: the same measure for `CCNC(=O)Nc1cc(-c2nc(C(F)(F)F)cs2)c(-c2cnc3c(c2)c(=O)c(C(=O)O)cn3CC)cn1` [Example 8, 1-Ethyl-6-{6-[(ethylcarbamoyl)amino]-4-[4-(trifluoromethyl)-1,3-thiazol-2-yl]pyridin-3-yl}-4-oxo-1,4-dihydro-1,8-naphthyridine-3-carboxylic acid]: 98%; for `CCNC(=O)Nc1cc(-c2nc(C(F)(F)F)cs2)c(-c2cnc3c(c2)c(=O)c(C(=O)O)cn3C2CC2)cn1` [Example 9, 1-Cyclopropyl-6-{6-[(ethylcarbamoyl)amino]-4-[4-(trifluoromethyl)-1,3-thiazol-2-yl]pyridin-3-yl}-4-oxo-1,4-dihydro-1,8-naphthyridine-3-carboxylic acid]: 96%; for `CCNC(=O)Nc1cc(-c2nc(C(F)(F)F)cs2)c(-c2cnc3c(c2)c(=O)c(C(=O)O)cn3[C@H](CO)CC(C)C)cn1` [Example 11, 6-{6-[(ethylcarbamoyl)amino]-4-[4-(trifluoromethyl)-1,3-thiazol-2-yl]pyridin-3-yl}-1-[(2S)-1-hydroxy-4-methylpentan-2-yl]-4-oxo-1,4-dihydro-1,8-naphthyridine-3-carboxylic acid]: 104%.
On the same count and under the same terms, the same measure for `CCNC(=O)Nc1cc(-c2nc(C(F)(F)F)cs2)c(-c2cnc3c(c2)c(=O)c(C(=O)O)cn3[C@H](CO)C(C)(C)C)cn1` [Example 12, 6-{6-[(ethylcarbamoyl)amino]-4-[4-(trifluoromethyl)-1,3-thiazol-2-yl]pyridin-3-yl}-1-[(2S)-1-hydroxy-3,3-dimethylbutan-2-yl]-4-oxo-1,4-dihydro-1,8-naphthyridine-3-carboxylic acid]: 104%; for `CCNC(=O)Nc1cc(-c2nc(C(F)(F)F)cs2)c(-c2cnc3c(c2)c(=O)c(C(=O)O)cn3CCOP(=O)(O)O)cn1` [Example 14, 6-{6-[(ethylcarbamoyl)amino]-4-[4-(trifluoromethyl)-1,3-thiazol-2-yl]pyridin-3-yl}-4-oxo-1-[2-(phosphonooxy)ethyl]-1,4-dihydro-1,8-naphthyridine-3-carboxylic acid]: 103%.
Regarding `CCNC(=O)Nc1cc(-c2nc(C(F)(F)F)cs2)c(-c2cnc3c(c2)c(=O)c(C(=O)O)cn3CCN(C)C)cn1` [Example 16, 1-[2-(dimethylamino)ethyl]-6-{6-[(ethylcarbamoyl)amino]-4-[4-(trifluoromethyl)-1,3-thiazol-2-yl]pyridin-3-yl}-4-oxo-1,4-dihydro-1,8-naphthyridine-3-carboxylic acid], the inhibition at 1 µM under setting [1] stood at 104%.
As for `CCNC(=O)Nc1cc(-c2nc(C(F)(F)F)cs2)c(-c2cnc3c(c2)c(=O)c(C(=O)OCCO)cn3CC)cn1` [Example 17, 2-hydroxyethyl 1-ethyl-6-{6-[(ethylcarbamoyl)amino]-4-[4-(trifluoromethyl)-1,3-thiazol-2-yl]pyridin-3-yl}-4-oxo-1,4-dihydro-1,8-naphthyridine-3-carboxylate], the inhibition at 1 µM under setting [1] was 106%.
The same measure, in the same setting: the same measure for `CCNC(=O)Nc1cc(-c2nc(C(F)(F)F)cs2)c(-c2cnc3c(c2)c(=O)c(C(=O)OCCCO)cn3CC)cn1` [Example 18, 3-hydroxypropyl 1-ethyl-6-{6-[(ethylcarbamoyl)amino]-4-[4-(trifluoromethyl)-1,3-thiazol-2-yl]pyridin-3-yl}-4-oxo-1,4-dihydro-1,8-naphthyridine-3-carboxylate]: 108%.
As to `CCNC(=O)Nc1cc(-c2nc(C(F)(F)F)cs2)c(-c2cnc3c(c2)c(=O)c(C(=O)OCCOP(=O)(O)O)cn3CC)cn1` [Example 20, 2-(phosphonooxy)ethyl 1-ethyl-6-{6-[(ethylcarbamoyl)amino]-4-[4-(trifluoromethyl)-1,3-thiazol-2-yl]pyridin-3-yl}-4-oxo-1,4-dihydro-1,8-naphthyridine-3-carboxylate], the inhibition at 1 µM was 104%.
For `CCNC(=O)Nc1cc(-c2nc(C(F)(F)F)cs2)c(-c2cnc3c(c2)c(=O)c(C(=O)OCCCOP(=O)(O)O)cn3CC)cn1` [Example 22, 3-(Phosphonooxy)propyl 1-ethyl-6-{6-[(ethylcarbamoyl)amino]-4-[4-(trifluoromethyl)-1,3-thiazol-2-yl]pyridin-3-yl}-4-oxo-1,4-dihydro-1,8-naphthyridine-3-carboxylate], the inhibition at 1 µM under setting [1] turned out to be 104%.
Turning to `CCNC(=O)Nc1cc(-c2nc(C(F)(F)F)cs2)c(-c2cnc3c(c2)c(=O)c(C(=O)O)cn3[C@H](COP(=O)(O)O)CC(C)C)cn1` [Example 25, 6-{6-[(ethylcarbamoyl)amino]-4-[4-(trifluoromethyl)-1,3-thiazol-2-yl]pyridin-3-yl}-1-[(2S)-4-methyl-1-(phosphonooxy)pentan-2-yl]-4-oxo-1,4-dihydro-1,8-naphthyridine-3-carboxylic acid], the inhibition at 1 µM under setting [1] worked out at 108%.
Turning to `CCNC(=O)Nc1cc(-c2nc(C(F)(F)F)cs2)c(-c2cnc3c(c2)c(=O)c(C(=O)O)cn3[C@@H]2CCCN(CCN3CCOCC3)C2)cn1` [Example 29], the inhibition at 1 µM worked out at 105%.
As to `CCNC(=O)Nc1cc(-c2nc(C(F)(F)F)cs2)c(-c2cnc3c(c2)c(=O)c(C(=O)O)cn3[C@H]2CCCN(CCN3CCOCC3)C2)cn1` [Example 31], the inhibition at 1 µM under setting [1] came out at 104%.
On the same count and under the same terms, the same measure for `CCNC(=O)Nc1cc(-c2nc(C(F)(F)F)cs2)c(-c2cnc3c(c2)c(=O)c(C(=O)O)cn3C[C@@H]2CCCN2CC)cn1` [Example 32]: 103%.
The same measure, in the same setting: the same measure for `CCNC(=O)Nc1cc(-c2nc(C(F)(F)F)cs2)c(-c2cnc3c(c2)c(=O)c(C(=O)O)cn3C[C@H]2CCCN2CC)cn1` [Example 33]: 102%; for `CCNC(=O)Nc1cc(-c2nc(CC(C)C)cs2)c(-c2cnc3c(c2)c(=O)c(C(=O)O)cn3[C@H]2CCCN(CCN(CC)CC)C2)cn1` [Example 34, (S)-1-(1-(2-(diethylamino)ethyl)piperidin-3-yl)-6-(6-(3-ethylureido)-4-(4-isobutylthiazol-2-yl)pyridin-3-yl)-4-oxo-1,4-dihydro-1,8-naphthyridine-3-carboxylic acid]: 103%; for `CCNC(=O)Nc1cc(-c2nc(-c3ccccc3)cs2)c(-c2cnc3c(c2)c(=O)c(C(=O)O)cn3[C@H]2CCCN(CCN(CC)CC)C2)cn1` [Example 35]: 102%.
The same measure, in the same setting: with `CCNC(=O)Nc1cc(-c2nc(C(F)(F)F)cs2)c(-c2cc3c(=O)c(C(=O)O)cn(C[C@@H]4CCCN4CC)c3nc2NCCN(C)C)cn1` [Example 36, 7-(2-(dimethylamino)ethylamino)-1-(((S)-1-ethylpyrrolidin-2-yl)methyl)-6-(6-(3-ethylureido)-4-(4-(trifluoromethyl)thiazol-2-yl)pyridin-3-yl)-4-oxo-1,4-dihydro-1,8-naphthyridine-3-carboxylic acid] the figure was 100%.
Take `CCNC(=O)Nc1cc(-c2nc(C(F)(F)F)cs2)c(-c2cc3c(=O)c(C(=O)O)cn(CC)c3nc2NCCN(C)C)cn1` [Example 37, 7-(2-(dimethylamino)ethylamino)-1-ethyl-6-(6-(3-ethylureido)-4-(4-(trifluoromethyl)thiazol-2-yl)pyridin-3-yl)-4-oxo-1,4-dihydro-1,8-naphthyridine-3-carboxylic acid]: the inhibition at 1 µM under setting [1] is 109%.
Consider `CCNC(=O)Nc1cc(-c2nc(C(F)(F)F)cs2)c(-c2cc3c(=O)c(C(=O)O)cn(CC)c3nc2N2CCN(C)CC2)cn1` [Example 38, 1-ethyl-6-(6-(3-ethylureido)-4-(4-(trifluoromethyl)thiazol-2-yl)pyridin-3-yl)-7-(4-methylpiperazin-1-yl)-4-oxo-1,4-dihydro-1,8-naphthyridine-3-carboxylic acid], for which, under setting [1], the inhibition at 1 µM came out at 101%.
Consider `CCNC(=O)Nc1cc(-c2nc(C(F)(F)F)cs2)c(-c2cc3c(=O)c(C(=O)O)cn(C4CCCCC4)c3cn2)cn1` [Example 39, 1-cyclohexyl-6-(6-(3-ethylureido)-4-(4-(trifluoromethyl)thiazol-2-yl)pyridin-3-yl)-4-oxo-1,4-dihydro-1,7-naphthyridine-3-carboxylic acid], for which the inhibition at 1 µM under setting [1] came out at 102%.
On the same count and under the same terms, with `CCNC(=O)Nc1cc(-c2nc(C(F)(F)F)cs2)c(-c2cc3c(=O)c(C(=O)O)cn(CCC(C)(C)C)c3cn2)cn1` [Example 40] the figure was 103%.
Regarding `CCNC(=O)Nc1cc(-c2nc(C(F)(F)F)cs2)c(-c2cc3c(=O)c(C(=O)O)cn(C[C@H]4CCCN4CC)c3cn2)cn1` [Example 41], the inhibition at 1 µM under setting [1] turned out to be 102%.
Same read-out and setting: with `CCNC(=O)Nc1cc(-c2nc(C(F)(F)F)cs2)c(-c2cc3c(=O)c(C(=O)O)cn(C[C@@H]4CCCN4CC)c3cn2)cn1` [Example 42] the figure was 103%.
